{"source": "patent EP4556003A1", "about": "“ANTI-OBESITY AND ANTI-DIABETIC ACTIVITY OF BROMINATED DITERPENES FROM RED ALGAE OF THE GENUS LAURENCIA AND APPLICATIONS THEREOF” (priority 2023, dated 2025)", "key": {"[1]": {"experiment": "Glucose tolerance test in high fat diet-fed mice", "format": "in vivo, C57BL/6 adult male mice", "procedure": "All procedures were conducted in compliance with protocols approved by the Animal Care Committee of the University of Crete, School of Medicine (Facility number EL91-BIOexp-06), in conjunction with the Veterinary Department of the Region of Crete, Heraklion, Crete, Greece. C57BL/6 adult male mice were maintained in a 12 h day/night cycle and 21-23 °C conditions. Mice were provided with water and either normal fat diet, or high fat diet (60% energy from fat) ad libitum. All mice were weighed every 48 h.\nNeorogioldiol was first dissolved in 90% carbowaxTM 400, 10% (v/v) absolute ethanol solution and then diluted 1:10 in water for injection. A dose of 0.25 mg neorogioldiol in a total volume of 200 µl was administered intraperitoneally every 48 h in mice in high fat + neorogioldiol group starting from day 1. 4-5 mice were used per group and each experiment was performed twice.\nMice were fasted for 16 h before receiving an intraperitoneal injection of 35% dextrose (100 µl / 35 gr). Blood glucose concentrations were measured in blood collected by venous bleeding from the tail vein immediately before the injections and after 30, 60 and 120 min."}, "3T3-L1 cells": {"system": "3T3-L1 cells", "experiment": "Quantitative PCR of relative mRNA expression in cell culture samples", "format": "cell-based, Mouse", "details": "mature adipocytes: differentiated 15 days, then 62.5 µM for 8 more days"}}}
{"substance": "neorogioldiol", "values": [{"measurement": "glucose intolerance (glucose tolerance test)", "setting": "[1]; day 16, 0.25 mg/mouse i.p. every 48 h", "value": "had not developed glucose intolerance"}, {"measurement": "glucose intolerance (glucose tolerance test)", "setting": "[1]; day 34, 0.25 mg/mouse i.p. every 48 h", "value": "became glucose intolerant"}, {"measurement": "Dlkl expression", "setting": "3T3-L1 cells", "value": "did not affect the expression"}, {"measurement": "Lep expression", "setting": "3T3-L1 cells", "value": "decreased the expression"}, {"measurement": "Slc2a4 expression", "setting": "3T3-L1 cells", "value": "decreased the expression"}]}
